Assays:
Format in all cases: biochemical
Set-up in all cases: from tissue
FAAH = target: T1, FAAH (Mus musculus, UniProt O08914); assay: In vitro competitive ABPP, % inhibition at fixed concentration, FAAH
T1 sequence (O08914 1-579): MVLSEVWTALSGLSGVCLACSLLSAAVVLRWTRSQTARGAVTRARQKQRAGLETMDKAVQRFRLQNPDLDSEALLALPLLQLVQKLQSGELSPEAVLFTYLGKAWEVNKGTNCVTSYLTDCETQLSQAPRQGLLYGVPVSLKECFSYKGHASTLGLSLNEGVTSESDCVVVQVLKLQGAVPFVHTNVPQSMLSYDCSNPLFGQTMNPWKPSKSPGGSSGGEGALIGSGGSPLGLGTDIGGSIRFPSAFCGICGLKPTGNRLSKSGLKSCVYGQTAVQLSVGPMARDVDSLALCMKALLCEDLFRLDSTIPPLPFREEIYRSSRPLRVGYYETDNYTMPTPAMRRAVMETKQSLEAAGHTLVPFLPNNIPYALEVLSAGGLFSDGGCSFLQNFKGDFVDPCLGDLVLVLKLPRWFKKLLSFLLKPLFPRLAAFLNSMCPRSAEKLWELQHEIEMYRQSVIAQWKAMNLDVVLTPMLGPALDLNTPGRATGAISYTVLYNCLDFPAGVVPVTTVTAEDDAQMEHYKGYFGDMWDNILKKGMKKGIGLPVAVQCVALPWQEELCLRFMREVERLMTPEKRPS
Procedure, shortened: (§1)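 Mouse brain membrane proteome or cell lysate at 1.0 mg/ml was preincubated with inhibitor for 30 min at 37° C, then labelled with FP-Rh for another 30 min. After SDS-PAGE, activity was quantified from the fluorescent intensity of the MAGL, ABHD6 and FAAH bands.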

MAGL = target: T2, MAGL (Mus musculus, UniProt O35678); assay: In vitro competitive ABPP, % inhibition at fixed concentration, MAGL
T2 sequence (O35678 1-303): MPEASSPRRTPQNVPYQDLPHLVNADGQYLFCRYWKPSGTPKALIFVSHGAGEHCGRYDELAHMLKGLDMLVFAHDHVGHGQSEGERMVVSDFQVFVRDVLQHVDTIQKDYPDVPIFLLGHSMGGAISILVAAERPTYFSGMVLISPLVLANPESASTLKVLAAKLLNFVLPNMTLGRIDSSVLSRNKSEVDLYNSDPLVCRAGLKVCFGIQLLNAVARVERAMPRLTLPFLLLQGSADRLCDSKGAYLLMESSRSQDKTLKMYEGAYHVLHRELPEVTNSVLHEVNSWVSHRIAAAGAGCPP
Procedure, shortened: as §1

ABHD6 = target: T3, ABHD6 (Mus musculus, UniProt Q8R2Y0); assay: In vitro competitive ABPP, % inhibition at fixed concentration, ABHD6
T3 sequence (Q8R2Y0 1-336): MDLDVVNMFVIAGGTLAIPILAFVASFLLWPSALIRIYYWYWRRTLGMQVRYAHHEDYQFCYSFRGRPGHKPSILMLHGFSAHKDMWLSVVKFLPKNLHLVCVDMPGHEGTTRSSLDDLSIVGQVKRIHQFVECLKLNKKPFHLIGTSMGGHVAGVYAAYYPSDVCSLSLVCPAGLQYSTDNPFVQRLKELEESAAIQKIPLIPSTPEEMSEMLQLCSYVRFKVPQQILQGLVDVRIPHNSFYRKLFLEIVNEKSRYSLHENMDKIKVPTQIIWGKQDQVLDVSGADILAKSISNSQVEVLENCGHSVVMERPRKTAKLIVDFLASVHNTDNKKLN
Procedure, shortened: as §1

Row | Structure (SMILES) | inhibition at 1 µM (FAAH) [%] | inhibition at 1 µM (MAGL) [%] | inhibition at 1 µM (ABHD6) [%]
1 | O=C(ON1C(=O)CCC1=O)N1CCN(Cc2cc(Cl)ccc2C(=O)N2CCOCC2)CC1 [Example 199, 2,5-Dioxopyrrolidin-1-yl 4-{[5-chloro-2-(morpholine-4-carbonyl)phenyl]methyl}piperazine-1-carboxylate] | < 25 | < 25 | 25 to 75
2 | Cc1c(CN2CCN(C(=O)ON3C(=O)CCC3=O)CC2)cccc1C(=O)N1CCOCC1 [Example 205, 2,5-Dioxopyrrolidin-1-yl 4-{[2-methyl-3-(morpholine-4-carbonyl)phenyl]methyl}piperazine-1-carboxylate] | < 25 | < 25 | > 75
3 | Cc1c(CN2CCN(C(=O)ON3C(=O)CCC3=O)CC2)cccc1C(=O)N1CCC1 [Example 207, 2,5-Dioxopyrrolidin-1-yl 4-{[3-(azetidine-1-carbonyl)-2-methylphenyl]methyl}piperazine-1-carboxylate] | < 25 | 25 to 75 | > 75
4 | Cc1cc(CN2CCN(C(=O)ON3C(=O)CCC3=O)CC2)cc(C(=O)N2CCOCC2)c1 [Example 208, 2,5-Dioxopyrrolidin-1-yl 4-{[3-methyl-5-(morpholine-4-carbonyl)phenyl]methyl}piperazine-1-carboxylate] | < 25 | < 25 | < 25
5 | O=C(ON1C(=O)CCC1=O)N1CCN(Cc2ccc(Cl)c(C(=O)N3CCOCC3)c2)CC1 [Example 209, 2,5-Dioxopyrrolidin-1-yl 4-{[4-chloro-3-(morpholine-4-carbonyl)phenyl]methyl}piperazine-1-carboxylate] | < 25 | < 25 | < 25

Second part, the compound after the results:

Row | inhibition at 1 µM (FAAH) [%] | inhibition at 1 µM (MAGL) [%] | inhibition at 1 µM (ABHD6) [%] | Structure (SMILES)
6 | < 25 | < 25 | < 25 | O=C(ON1C(=O)CCC1=O)N1CCN(Cc2cc(Cl)ccc2C(=O)N2CCCC2)CC1 [Example 200, 2,5-Dioxopyrrolidin-1-yl 4-{[5-chloro-2-(pyrrolidine-1-carbonyl)phenyl]methyl}piperazine-1-carboxylate]
7 | < 25 | < 25 | < 25 | Cc1ccc(C(=O)N2CCOCC2)c(CN2CCN(C(=O)ON3C(=O)CCC3=O)CC2)c1 [Example 201, 2,5-Dioxopyrrolidin-1-yl 4-{[5-methyl-2-(morpholine-4-carbonyl)phenyl]methyl}piperazine-1-carboxylate]
8 | < 25 | < 25 | < 25 | Cc1ccc(C(=O)N2CCCC2)c(CN2CCN(C(=O)ON3C(=O)CCC3=O)CC2)c1 [Example 202, 2,5-Dioxopyrrolidin-1-yl 4-{[5-methyl-2-(pyrrolidine-1-carbonyl)phenyl]methyl}piperazine-1-carboxylate]
9 | < 25 | < 25 | < 25 | O=C(ON1C(=O)CCC1=O)N1CCN(Cc2cc(C(F)(F)F)ccc2C(=O)N2CCOCC2)CC1 [Example 203, 2,5-Dioxopyrrolidin-1-yl 4-{[2-(morpholine-4-carbonyl)-5-(trifluoromethyl)phenyl]methyl}piperazine-1-carboxylate]
10 | < 25 | < 25 | < 25 | O=C(ON1C(=O)CCC1=O)N1CCN(Cc2cc(C(F)(F)F)ccc2C(=O)N2CCCC2)CC1 [Example 204, 2,5-Dioxopyrrolidin-1-yl 4-{[2-(pyrrolidine-1-carbonyl)-5-(trifluoromethyl)phenyl]methyl}piperazine-1-carboxylate]
11 | < 25 | 25 to 75 | > 75 | Cc1c(CN2CCN(C(=O)ON3C(=O)CCC3=O)CC2)cccc1C(=O)N1CCCC1 [Example 206, 2,5-Dioxopyrrolidin-1-yl 4-{[2-methyl-3-(pyrrolidine-1-carbonyl)phenyl]methyl}piperazine-1-carboxylate]

From patent US9567302B2, “Carbamate compounds and of making and using same” (Abide Therapeutics, Inc., priority 2012, dated 2017)
